Test results published in patent publication US20240252651A1, “METHOD OF DELIVERING NUCLEIC ACIDS INTO CELLS” (GUANGZHOU LIDE BIOMEDICINE TECHNOLOGY CO., LTD., priority 2021, published 2024).
Entries after “also recorded” stand apart in the source; their conditions may differ.

How the values were obtained:
Hela cells [1] = experiment: Transfection of GFP-expressing plasmid DNA in Hela cells (flow cytometer); type: cell-based, human; conditions: plasmid DNA 0.5 μg/well, material 0.25 to 8 μg/well (dosages per FIG. 4), 24 h
Description: In this experiment, with GFP-expressing plasmid DNA as a reporter gene, a gene transfection efficiency of a cationic lipid analog material in Hela cells was detected. A specific method was as follows:
Hela cells were inoculated in a 24-well plate and cultured in an incubator for 12 h; each of different cationic lipid analog materials (0.25 μg/well to 8 μg/well) was mixed with GFP-expressing plasmid DNA (0.5 μg/well) in 40 μL of a sodium acetate buffer (25 mM, pH 5.2), and resulting mixtures each were allowed to stand for 10 min and then diluted with 460 μL of an Opti-MEM medium to obtain plasmid DNA-loaded cationic lipid analog complex particle solutions; a medium for the Hela cells in the plate was removed, then the HeLa cells were washed once with PBS, and the complex particle solutions were added; and the cells were cultured for 24 h, and then a plasmid DNA transfection efficiency in cells was analyzed by a flow cytometer. A commercial gene transfection reagent Lipofectamine 2000 was adopted as a positive control.

DC 2.4 cells = experiment: Transfection of eGFP-mRNA in DC 2.4 cells (FCM and LSCM); type: cell-based, mouse; conditions: mRNA 0.2 μg/well, material 0.25 to 2 μg/well (dosages per FIG. 7), 24 h, FIG. 7-9
Description: In this experiment, with eGFP-mRNA as model mRNA, an mRNA transfection efficiency of a cationic lipid analog material in DC 2.4 cells was detected. A specific operation method was as follows:
DC 2.4 cells were inoculated in a 48-well plate and cultured in an incubator for 12 h; each of different cationic lipid analog materials (0.25 μg/well to 2 μg/well) was mixed with cGFP-expressing mRNA (0.2 μg/well) in 20 μL of a sodium acetate buffer (25 mM, pH 5.2), and resulting mixtures each were allowed to stand for 10 min and then diluted with 230 μL of a Opti-MEM medium to obtain mRNA-loaded complex particle solutions; a medium for the […] were washed once with PBS, and the complex particle solutions were added; and the cells were cultured for 24 h, an mRNA transfection efficiency in cells was observed by FCM and LSCM. A commercial gene transfection reagent Lipofectamine 2000 was adopted as a positive control.

Hela cells [2] = experiment: Transfection of luciferase-expressing plasmid DNA in HeLa cells (luciferase expression); type: cell-based, human; conditions: plasmid DNA 0.5 μg, 24 h, luciferase expression level, FIG. 5
Description: In this example, with luciferase-expressing plasmid DNA as a reporter gene, a gene transfection efficiency of a cationic lipid analog material in HeLa cells was detected. A specific operation method was as follows: Hela cells were inoculated in a 96-well plate and cultured in an incubator for 12 h; each of different cationic lipid analog materials was mixed with luciferase-expressing plasmid DNA (0.5 μg) in 40 μL of a sodium acetate buffer (25 mM, pH 5.2), and resulting mixtures each were allowed to stand for 10 min and then diluted with 460 μL of an Opti-MEM medium to obtain plasmid DNA-loaded cationic lipid analog complex particle solutions; a medium for the Hela cells in the plate was removed, then the Hela cells were washed once with PBS, and the complex particle solutions were added in a volume of 125 μL; the cells were cultured for 24 h, then a resulting culture supernatant was discarded, and the cells were fully lysed; and a substrate was added at 50 μl/well, and an expression level of luciferase was detected by a multi-mode microplate reader.

Hela cells [3] = experiment: Cytotoxicity by MTT experiment in Hela cells; type: cell-based, human; conditions: material 1 μg/ml, 4 h exposure then 20 h culture, FIG. 11
Description: In this experiment, I2R2C16A1, I2R2C17A1, I2R2C18A1, I2R2C19A1, and I2R2C20A1 with high transfection efficiencies were selected as representative cationic lipid analog materials, and the toxicity of cationic lipid analogs for Hela cells was detected by an MTT experiment. A specific experimental method was as follows: HeLa cells were inoculated in a 96-well plate and cultured in an incubator for 12 h, then a medium was removed, and a cationic lipid analog material was added at 1 μg/ml; the cells were cultured for 4 h, then the material was washed away and replaced with DMEM; and the cells were cultured for 20 h, and finally cell viability was detected by MTT.

A549 cells (A549-Luc) = experiment: siRNA transfection, luciferase gene silencing in A549-Luc cells; type: cell-based, human; conditions: final siRNA 100 nM, material 0.5 to 3 μg/well, 48 h, FIG. 10
Description: In this experiment, with I2R2C18-1A1, I2R3C18-1A1, I2R2C18-2A1, and I2R3C18-2A1 as representative cationic lipid analog materials, siRNA transfection and delivery effects of the cationic lipid analog materials were detected in A549 cells (A549-Luc). A specific operation method was as follows:
Luciferase-expressing A549 cells (A549-Luc) were inoculated in a 96-well plate and cultured in an incubator for 12 h; each of different materials (0.5 μg/well to 3 μg/well) was mixed with siRNA in 40 μL of a sodium acetate buffer (25 mM, pH 5.2), and resulting mixtures each were allowed to stand for 10 min and then diluted with 460 μL of an Opti-MEM medium to obtain siRNA-loaded complex particle solutions (final siRNA concentration was 100 nM); a medium for the A549-Luc cells in the plate was removed, then the A549-Luc cells were washed once with PBS, and the complex particle solutions each were added in a volume of 125 μL; the cells were cultured for 48 h, then a resulting culture supernatant was discarded, and the cells were fully lysed; and a substrate was added at 50 μl/well, and an expression level of luciferase was detected by a multi-mode microplate reader.

| Structure (SMILES) | transfection efficiency of GFP-expressing plasmid DNA, compared with commercial transfection reagent Lipofectamine 2000 (Hela cells [1]) | mRNA transfection efficiency (eGFP-mRNA), compared with Lipofectamine 2000 (DC 2.4 cells) | transfection efficiency of luciferase-expressing plasmid DNA, compared with Lipofectamine 2000 (Hela cells [2]) | cytotoxicity (cell viability by MTT) (Hela cells [3]) | gene silencing efficiency as a function of material dosage (A549 cells (A549-Luc)) | siRNA transfection, silencing of the luciferase reporter gene (A549 cells (A549-Luc)) |
| --- | --- | --- | --- | --- | --- | --- |
| CCCCCCCCCCCCCCCC(=O)N(CCN(C)C)C(C(=O)NCCOCCOCCNC(=O)C(C(C)C)N(CCN(C)C)C(=O)CCCCCCCCCCCCCCC)C(C)C (stereo not shown) [I2R1C16A1] | reaches or is higher than; also recorded: equivalent to or higher than | high transfection efficiency; also recorded: equivalent to or higher than | equivalent to or higher than |  |  |  |
| CCCCCCCC/C=C\CCCCCCCC(=O)N(CCN(C)C)C(C(=O)NCCOCCOCCNC(=O)C(C(C)C)N(CCN(C)C)C(=O)CCCCCCC/C=C\CCCCCCCC)C(C)C (stereo not shown) [I2R1C18-1A1] | reaches or is higher than; also recorded: equivalent to or higher than | high transfection efficiency; also recorded: equivalent to or higher than | equivalent to or higher than |  |  |  |
| CCCCCCCCCCCCCCCC(=O)N(CCCN(C)C)C(C(=O)NCCOCCOCCNC(=O)C(C(C)C)N(CCCN(C)C)C(=O)CCCCCCCCCCCCCCC)C(C)C (stereo not shown) [I2R2C16A1] | reaches or is higher than; also recorded: equivalent to or higher than | high transfection efficiency; also recorded: equivalent to or higher than | equivalent to or higher than | low cytotoxicity |  |  |
| CCCCCCCC/C=C\CCCCCCCC(=O)N(CCCN(C)C)C(C(=O)NCCOCCOCCNC(=O)C(C(C)C)N(CCCN(C)C)C(=O)CCCCCCC/C=C\CCCCCCCC)C(C)C (stereo not shown) [I2R2C18-1A1] | reaches or is higher than; also recorded: equivalent to or higher than | high transfection efficiency; also recorded: equivalent to or higher than | equivalent to or higher than |  | increases with the increase of a dosage | efficient gene silencing; also recorded: can transfect siRNA into cells to specifically silence the expression of the luciferase reporter gene |
| CCCCC/C=C\C/C=C\CCCCCCCC(=O)N(CCCN(C)C)C(C(=O)NCCOCCOCCNC(=O)C(C(C)C)N(CCCN(C)C)C(=O)CCCCCCC/C=C\C/C=C\CCCCC)C(C)C (stereo not shown) [I2R2C18-2A1] | reaches or is higher than; also recorded: equivalent to or higher than | high transfection efficiency; also recorded: equivalent to or higher than | equivalent to or higher than |  | increases with the increase of a dosage | efficient gene silencing; also recorded: can transfect siRNA into cells to specifically silence the expression of the luciferase reporter gene |
| CCCCCCCCCCCCCCCCCC(=O)N(CCCN(C)C)C(C(=O)NCCOCCOCCNC(=O)C(C(C)C)N(CCCN(C)C)C(=O)CCCCCCCCCCCCCCCCC)C(C)C (stereo not shown) [I2R2C18A1] |  | high transfection efficiency; also recorded: equivalent to or higher than |  | low cytotoxicity |  |  |
| CCCCCCCCCCCCCCCCCCCC(=O)N(CCCN(C)C)C(C(=O)NCCOCCOCCNC(=O)C(C(C)C)N(CCCN(C)C)C(=O)CCCCCCCCCCCCCCCCCCC)C(C)C (stereo not shown) [I2R2C20A1] |  |  |  | low cytotoxicity |  |  |
| CCCCCCCCCCCCCCCC(=O)N(CCCN(CC)CC)C(C(=O)NCCOCCOCCNC(=O)C(C(C)C)N(CCCN(CC)CC)C(=O)CCCCCCCCCCCCCCC)C(C)C (stereo not shown) [I2R3C16A1] | reaches or is higher than; also recorded: equivalent to or higher than | high transfection efficiency; also recorded: equivalent to or higher than | equivalent to or higher than |  |  |  |
| CCCCC/C=C\C/C=C\CCCCCCCC(=O)N(CCCN(CC)CC)C(C(=O)NCCOCCOCCNC(=O)C(C(C)C)N(CCCN(CC)CC)C(=O)CCCCCCC/C=C\C/C=C\CCCCC)C(C)C (stereo not shown) [I2R3C18-2A1] | reaches or is higher than; also recorded: equivalent to or higher than | high transfection efficiency; also recorded: equivalent to or higher than | equivalent to or higher than |  | increases with the increase of a dosage | efficient gene silencing; also recorded: can transfect siRNA into cells to specifically silence the expression of the luciferase reporter gene |
| CCCCCCCCCCCCCCCCCC(=O)N(CCCN(CC)CC)C(C(=O)NCCOCCOCCNC(=O)C(C(C)C)N(CCCN(CC)CC)C(=O)CCCCCCCCCCCCCCCCC)C(C)C (stereo not shown) [I2R3C18A1] | reaches or is higher than; also recorded: equivalent to or higher than | high transfection efficiency; also recorded: equivalent to or higher than | equivalent to or higher than |  |  |  |
| CCCCC/C=C\C/C=C\CCCCCCCC(=O)N(CCC1CCCN1C)C(C(=O)NCCOCCOCCNC(=O)C(C(C)C)N(CCC1CCCN1C)C(=O)CCCCCCC/C=C\C/C=C\CCCCC)C(C)C (stereo not shown) [I2R11C18-2A1] | reaches or is higher than; also recorded: equivalent to or higher than | high transfection efficiency; also recorded: equivalent to or higher than | equivalent to or higher than |  |  |  |
